From ChEMBL document CHEMBL1201862, “PubChem BioAssay data set” (2004)
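48-hour exposure; five concentrations; linearly interpolated endpoints. GI50 = concentration required for 50% inhibition of growth.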 The source made the active and inactive calls. Cut-off read from the data, not from the text of the source: active = GI50 up to about 1.1 µM and inactive = higher.

Assays:
Assay in all cases: inhibition of tumour cell growth, NCI panel, 48 h
[1] = tested on: 786-0
[2] = tested on: A498
[3] = tested on: A549
[4] = tested on: ACHN
[5] = tested on: CAKI-1
[6] = tested on: CCRF-CEM
[7] = tested on: COLO 205
[8] = tested on: DLD-1
[9] = tested on: DMS-114
[10] = tested on: DMS-273
[11] = tested on: EKVX
[12] = tested on: HCC 2998
[13] = tested on: HCT-116
[14] = tested on: HCT-15
[15] = tested on: HL-60
[16] = tested on: HOP-18
[17] = tested on: HOP-62
[18] = tested on: HOP-92
[19] = tested on: HT-29
[20] = tested on: IGROV-1
[21] = tested on: K562
[22] = tested on: KM-20L2
[23] = tested on: KM12
[24] = tested on: LOX IMVI
[25] = tested on: LXFL 529
[26] = tested on: M14
[27] = tested on: M19-MEL
[28] = tested on: Malme-3M
[29] = tested on: NCI-H226
[30] = tested on: NCI-H23
[31] = tested on: NCI-H460
[32] = tested on: NCI-H522
[33] = tested on: OVCAR-3
[34] = tested on: OVCAR-4
[35] = tested on: OVCAR-5
[36] = tested on: OVCAR-8
[37] = tested on: RPMI-8226
[38] = tested on: RXF 393
[39] = tested on: RXF 631
[40] = tested on: SF-268
[41] = tested on: SF-295
[42] = tested on: SF-539
[43] = tested on: SK-MEL-28
[44] = tested on: SK-MEL-2
[45] = tested on: SK-MEL-5
[46] = tested on: SK-OV-3
[47] = tested on: SNB-19
[48] = tested on: SNB-75
[49] = tested on: SNB-78
[50] = tested on: SW-620
[51] = tested on: TK-10
[52] = tested on: U-251
[53] = tested on: UACC-257
[54] = tested on: UACC-62
[55] = tested on: UO-31
[56] = tested on: MOLT-4
[57] = tested on: SN12C
[58] = tested on: XF498

Measured: GI50

NC(=O)CC(N/C=C1/N=C(c2ccccc2)OC1=O)C(=O)O (stereo unspecified)
> 100 µM: [14]
inactive: [1] > 100 µM | [2] > 100 µM | [3] > 100 µM | [4] > 100 µM | [5] > 100 µM | [6] > 100 µM | [7] > 100 µM | [8] > 100 µM | [9] > 100 µM | [10] > 100 µM | [11] > 100 µM | [12] > 100 µM | [13] > 100 µM | [15] > 100 µM | [16] > 100 µM | [17] > 100 µM | [18] > 100 µM | [19] > 100 µM | [20] > 100 µM | [21] > 100 µM | [22] > 100 µM | [23] > 100 µM | [24] > 100 µM | [25] > 100 µM | [26] > 100 µM | [27] > 100 µM | [28] > 100 µM | [29] > 100 µM | [30] > 100 µM | [31] > 100 µM | [32] > 100 µM | [33] > 100 µM | [34] > 100 µM | [35] > 100 µM | [36] > 100 µM | [37] > 100 µM | [38] > 100 µM | [39] > 100 µM | [40] > 100 µM | [41] > 100 µM | [42] > 100 µM | [43] > 100 µM | [44] > 100 µM | [45] > 100 µM | [46] > 100 µM | [47] > 100 µM | [48] > 100 µM | [49] > 100 µM | [50] > 100 µM | [51] > 100 µM | [52] > 100 µM | [53] > 100 µM | [54] > 100 µM | [55] > 100 µM

CN(CCCCN)c1ccc2c(=O)[nH][nH]c(=O)c2c1
inactive: [1] > 100 µM | [2] > 100 µM | [3] > 100 µM | [4] > 100 µM | [5] > 100 µM | [6] > 100 µM | [7] > 100 µM | [8] > 100 µM | [9] > 100 µM | [10] > 100 µM | [11] > 100 µM | [12] > 100 µM | [13] > 100 µM | [15] > 100 µM | [16] > 100 µM | [17] > 100 µM | [18] > 100 µM | [19] > 100 µM | [20] > 44.9 µM | [21] > 100 µM | [23] > 100 µM | [24] > 100 µM | [25] > 100 µM | [26] 13.5 µM | [56] > 100 µM | [28] > 100 µM | [29] > 100 µM | [30] 2.24 µM | [31] > 100 µM | [32] > 100 µM | [33] > 100 µM | [34] > 100 µM | [35] > 100 µM | [36] > 10 µM | [37] > 100 µM | [38] > 100 µM | [39] > 10 µM | [40] 13 µM | [41] > 100 µM | [42] > 100 µM | [43] > 100 µM | [44] > 100 µM | [45] > 10 µM | [46] > 100 µM | [57] > 100 µM | [47] > 10 µM | [48] 88.3 µM | [49] > 100 µM | [50] > 100 µM | [51] > 100 µM | [52] > 100 µM | [53] > 100 µM | [54] > 41.8 µM | [55] > 100 µM | [58] > 100 µM
> 100 µM: [14]
